Assay results published in patent US20040214782A1, “Treatment or prevention of coccidiosis” (priority 1999, published 2004).

Tests used:
[1] = tested on: bovine coccidia (Eimeria bovis ~90% and Eimeria auburnenis ~10%); assay: Example 1: coccidiosis in Eimeria challenged calves, treated once clinical disease and oocyst shedding had begun; type: in vivo; conditions: for Mortality Rates: 8 calves, 21 day study; for mean daily attitude scores compared to the saline controls / mean daily fecal consistency scores compared to the saline treated calves / number of animals that ceased oocyst shedding compared to the saline treated calves: amprolium oral SIDX5; for calves that died due to coccidiosis: deaths within 24 hours of dosing; for number of animals that ceased oocyst shedding compared to the saline treated calves: from day 6 post-dosing, Formula II 5 and 2.5 mg/kg
Text: Administration of an azalide macrolide antibiotic according to the invention was compared with administration of amprolium, a commercially available agent, and saline control solution, in preventing full development of coccidiosis in Eimeria challenged calves.
Eighty naive calves weighing approximately 110-125 kg were housed in twenty holding pens (4 animals/pen) 16 days prior to study initiation. […] The calves were acclimated in order to facilitate coccidial exposure and allow time for clinical signs to develop. On day 14, with no signs of naturally occurring coccidiosis in the calves, each calf was challenged orally with a mixed culture of bovine coccidia (Eimeria bovis˜90% and Eimeria auburnenis ˜10%). Calves were each also challenged orally with 1.25×10^7 oocysts and observed for signs of clinical disease. On day 23 post-challenge, calves began to show signs of clinical disease and fecal samples were taken to determine oocyst shedding.
Calves were randomly allotted to one of six treatment groups. They were weighed at allotment and treatments administered subcutaneously in the pre-scapular region of the neck. Amprolium was administered by drench dosing (SIDX5) beginning on the day of allotment.
Rectal temperatures were determined and recorded at approximately the same time each day for the 21 day duration of the study. Attitude, hydration and fecal consistency scores were evaluated daily. Daily fecal samples were taken for qualitative analysis of the shedding of oocysts. Mortalities were necropsied and gross findings were recorded.
At termination of the experiment, surviving animals were weighed, euthanized, and post-mortem examinations conducted.

[2] = tested on: Eimeria culture (93% E bovis, 4% E. auburnenis and 3% E. zuernii); assay: Example 2: prevention of coccidiosis in Eimeria challenged calves, treated day 10 post-challenge; type: in vivo; conditions: for Mortality Rates: 10 calves, 28 day study; for clinical responses compared to saline treated animals: conclusion of Example 2; for oocyst shedding compared with the saline controls: days 19-28 post-infection; for oocyst shedding compared with the saline controls / mean daily attitude scores compared to the saline controls / mean daily fecal consistency scores compared with the saline treated calves / mean daily hydration scores compared to the saline treated calves: tilmicosin 10 mg/kg SC once, amprolium 10 mg/kg oral 5 days; for calves that died due to coccidiosis: deaths on day 23 and day 28 post-infection; for mean daily attitude scores compared to the saline controls / mean daily fecal consistency scores compared with the saline treated calves: p≦0.05
Text: Administration of amprolium was compared with tilmicosin, a commercially available macrolide antibiotic, in the prevention of coccidiosis in Eimeria challenged calves.
Sixty naive calves were housed in five holding pens (12 animals/pen). Calves were held 7 days prior to challenge in order to acclimate to the facility. On days −6, −4, and −2 pre-challenge fecal samples were obtained for semi-quantitative oocyst counts. On day −4 pre-challenge, oocysts were speciated if present. On day 0 calves were inoculated orally with the Eimeria culture. Temperatures were determined and recorded at approximately the same time each day for the duration of the study. Attitude, hydration and fecal consistency scores were evaluated daily. Post-challenge, fecal samples were collected on days 2, 4, 6, 8 and 10. Oocysts were speciated on day 10 post-challenge.
On day 10 post-challenge, each of fifty animals was randomly allotted to one of five treatment groups. Agents were either administered subcutaneously in the pre-scapular region of the neck or drench dosed orally.
Post-treatment, fecal samples were taken for semi-quantitative analysis of the shedding of coccidia oocysts on days 12, 14, 16 and 18. Beginning on day 19 and continuing through day 28, daily fecal samples were evaluated for semi-quantitative counts. Speciation of shed oocysts was performed on days 19-21, 23, 26 and 28.
Calves dying during the course of the study or euthanized due to a moribund condition associated with clinical coccidiosis were considered mortalities. Mortalities were necropsied and gross findings were recorded. At study termination (day 28), all remaining animals were weighed, euthanized, and post mortem examinations conducted.
Description of Disease Outbreak—Calves were inoculated orally with 2 ml of a coccidia challenge containing 125,000 sporulated oocysts with a species percent count of 93% E bovis, 4% E. auburnenis and 3% E. zuernii coccidia oocysts. At 19 days post-challenge, oocyst shedding was detected.

[3] = Formula II 5 and 2.5 mg/kg SC once, p>0.05
[4] = amprolium (Corid 20% soluble powder) oral drench SIDX5

Structure (SMILES)	mean daily attitude scores compared to the saline controls [1, 3]	mean daily fecal consistency scores compared to the saline treated calves [1, 3]	clinical responses (clinical scores, weight gain and oocyst shedding) compared to the saline control group ([1]; conclusion of Example 1)	calves that died due to coccidiosis ([1]; azalide at 5 and 2.5 mg/kg)	number of animals that ceased oocyst shedding compared to the saline treated calves ([1]; p>0.05)	21 day average daily weight gain relative to saline [2]	clinical responses compared to saline treated animals [2]	oocyst shedding compared with the saline controls [2]	calves that died due to coccidiosis [2]	mean daily attitude scores compared to the saline controls [2]	mean daily fecal consistency scores compared with the saline treated calves [2]	mean daily hydration scores compared to the saline treated calves [2]	other results
CCCN(C)C[C@]1(O)[C@H](C)O[C@@H](O[C@H]2[C@H](C)[C@@H](O[C@@H]3O[C@H](C)C[C@H](N(C)C)[C@H]3O)[C@@](C)(O)C[C@@H](C)CN[C@H](C)[C@@H](O)[C@](C)(O)[C@@H](CC)OC(=O)[C@@H]2C)C[C@@]1(C)OC [Compound of Formula II]	significant reductions	statistically significant reductions	improved clinical responses	no mortalities	significant increase	–	–	–	–	–	–	–	21 Day Average Daily Gain ([1]; 2.5 mg/kg, SIDX1, SC): 1.03 kg; Proportion of infected calves that ceased oocyst shedding 6 days post-treatment ([1]; 2.5 mg/kg, SIDX1, SC): 7/8 (88%); Mortality Rates ([1]; 2.5 mg/kg, SIDX1, SC): 0/8 (0%); 21 Day Average Daily Gain ([1]; 5 mg/kg, SIDX1, SC): 0.79 kg; Proportion of infected calves that ceased oocyst shedding 6 days post-treatment ([1]; 5 mg/kg, SIDX1, SC): 7/8 (88%); Mortality Rates ([1]; 5 mg/kg, SIDX1, SC): 0/8 (0%); mean daily hydration scores compared to the saline treated calves [1, 3]: statistically significant reductions; 21 day weight gain compared to the saline controls ([1]; azalide at 5 and 2.5 mg/kg): Numerical increases in weight gain; efficacy relative to amprolium ([1]; conclusion of Example 1, less complicated dosing regimen): comparable to that of amprolium
CCCc1ncc(C[n+]2ccccc2C)c(N)n1 [Amprolium, amprolium]	significant reductions	statistically significant reductions	improved clinical responses	one	significant increase	Numerical increases in weight gain	improved clinical responses	decreased oocyst shedding	One animal	significant reductions	statistically significant reductions	reductions	21 Day Average Daily Gain [1, 4]: 0.75 kg; Proportion of infected calves that ceased oocyst shedding 6 days post-treatment [1, 4]: 7/7 (100%); Mortality Rates [1, 4]: 1/8 (13%); 21 Day Average Daily Gain ([2]; amprolium 10 mg/kg, 5 days drench dosing): 0.60 kg; Mortality Rates ([2]; amprolium (Corid 9.6% Oral Solution) 10 mg/kg, 5 days drench dosing): 1/10 (10%)
CC[C@H]1OC(=O)C[C@@H](O)[C@H](C)[C@@H](O[C@@H]2O[C@H](C)[C@@H](O)[C@H](N(C)C)[C@H]2O)[C@@H](CCN2C[C@H](C)C[C@H](C)C2)C[C@@H](C)C(=O)/C=C/C(C)=C/[C@@H]1CO[C@@H]1O[C@H](C)[C@@H](O)[C@@H](OC)[C@H]1OC [Tilmicosin, tilmicosin]	–	–	–	–	–	responded similarly	improved clinical responses	decreased oocyst shedding	Two animals died	significant reductions	statistically significant reductions	reductions	21 Day Average Daily Gain ([2]; tilmicosin 10 mg/kg SIDX1, SC): 0.21 kg; Mortality Rates ([2]; tilmicosin 10 mg/kg SIDX1, SC): 2/10 (20%)
